Legend:
[1] = 101 kPa, Liquid; for speed of sound: Pulse-echo method
[2] = xn = mol fraction of the nth substance listed; details: 101 kPa, Liquid; for speed of sound: Pulse-echo method

C1CCCCC1 [cyclohexane]
[1]
Details | mass density [kg/m3] | speed of sound [m/s] | viscosity [mPa·s]
303.15 K | 768.3 | 1228 | 0.823
308.15 K | 764.4 | 1208 | 0.772
313.15 K | 760.5 | 1188 | 0.685

C1CCCCC1 [cyclohexane] + COC(=O)c1ccccc1
[2], x2 = 0
Details | mass density [kg/m3] | speed of sound [m/s] | viscosity [mPa·s]
303.15 K | 768.3 | 1228 | 0.823
308.15 K | 764.4 | 1208 | 0.772
313.15 K | 760.5 | 1188 | 0.685

CCCCCCC [heptane]
[1]
Details | mass density [kg/m3] | speed of sound [m/s] | viscosity [mPa·s]
303.15 K | 674.5 | 1116 | 0.375
308.15 K | 670.3 | 1092 | 0.35
313.15 K | 667.2 | 1072 | 0.325

CCCCCCC [heptane] + COC(=O)c1ccccc1
[2], x2 = 0
Details | mass density [kg/m3] | speed of sound [m/s] | viscosity [mPa·s]
303.15 K | 674.5 | 1116 | 0.375
308.15 K | 670.3 | 1092 | 0.35
313.15 K | 667.2 | 1072 | 0.325

CCCCCC [hexane]
[1]
Details | mass density [kg/m3] | speed of sound [m/s] | viscosity [mPa·s]
303.15 K | 649.8 | 1048 | 0.283
308.15 K | 645.9 | 1028 | 0.269
313.15 K | 642.2 | 1008 | 0.252

CCCCCC [hexane] + COC(=O)c1ccccc1
[2], x2 = 0
Details | mass density [kg/m3] | speed of sound [m/s] | viscosity [mPa·s]
303.15 K | 649.8 | 1048 | 0.283
308.15 K | 645.9 | 1028 | 0.269
313.15 K | 642.2 | 1008 | 0.252

COC(=O)c1ccccc1 [methyl benzoate]
[1]
Details | mass density [kg/m3] | speed of sound [m/s] | viscosity [mPa·s]
303.15 K | 1078.3 | 1380 | 1.667
308.15 K | 1074.4 | 1364 | 1.514
313.15 K | 1070.3 | 1348 | 1.376

COC(=O)c1ccccc1 [methyl benzoate] + C1CCCCC1
[2]
Details | mass density, 303.15 K [kg/m3] | mass density, 308.15 K [kg/m3] | mass density, 313.15 K [kg/m3] | speed of sound, 303.15 K [m/s] | speed of sound, 308.15 K [m/s] | speed of sound, 313.15 K [m/s] | viscosity, 303.15 K [mPa·s] | viscosity, 308.15 K [mPa·s] | viscosity, 313.15 K [mPa·s]
x1 = 0.088 | 796.9 | 793 | 789.1 | 1240 | 1220 | 1200 | 0.802 | 0.74 | 0.675
x1 = 0.1777 | 825.9 | 822.1 | 818.2 | 1252 | 1232 | 1212 | 0.82 | 0.757 | 0.704
x1 = 0.2692 | 855.8 | 851.9 | 848.1 | 1264 | 1244 | 1224 | 0.854 | 0.792 | 0.736
x1 = 0.3668 | 887.5 | 883.6 | 879.7 | 1276 | 1260 | 1240 | 0.905 | 0.84 | 0.781
x1 = 0.4667 | 918.8 | 915 | 911.1 | 1292 | 1276 | 1256 | 0.977 | 0.904 | 0.835
x1 = 0.5639 | 950 | 946.1 | 942.2 | 1308 | 1292 | 1276 | 1.076 | 0.999 | 0.932
x1 = 0.6675 | 981.7 | 978 | 974.1 | 1324 | 1308 | 1292 | 1.181 | 1.09 | 1.004
x1 = 0.7727 | 1013.3 | 1009.5 | 1005.5 | 1340 | 1324 | 1312 | 1.308 | 1.197 | 1.097
x1 = 0.8859 | 1046.1 | 1042.2 | 1038.3 | 1360 | 1344 | 1332 | 1.478 | 1.363 | 1.234
x1 = 1 | 1078.3 | 1074.4 | 1070.3 | 1380 | 1364 | 1348 | 1.667 | 1.514 | 1.376

COC(=O)c1ccccc1 [methyl benzoate] + CCCCCC
[2]
Details | mass density, 303.15 K [kg/m3] | mass density, 308.15 K [kg/m3] | mass density, 313.15 K [kg/m3] | speed of sound, 303.15 K [m/s] | speed of sound, 308.15 K [m/s] | speed of sound, 313.15 K [m/s] | viscosity, 303.15 K [mPa·s] | viscosity, 308.15 K [mPa·s] | viscosity, 313.15 K [mPa·s]
x1 = 0.1027 | 692.7 | 689 | 685.1 | 1072 | 1052 | 1036 | 0.324 | 0.301 | 0.283
x1 = 0.2076 | 738 | 734.2 | 730.3 | 1100 | 1080 | 1064 | 0.384 | 0.358 | 0.335
x1 = 0.3084 | 781.4 | 777.6 | 773.7 | 1128 | 1108 | 1096 | 0.441 | 0.409 | 0.383
x1 = 0.4087 | 825.2 | 821.3 | 817.3 | 1160 | 1140 | 1128 | 0.527 | 0.487 | 0.454
x1 = 0.5114 | 869.6 | 865.6 | 861.7 | 1196 | 1180 | 1164 | 0.624 | 0.579 | 0.542
x1 = 0.6115 | 913.1 | 909.2 | 905.3 | 1232 | 1220 | 1200 | 0.751 | 0.688 | 0.635
x1 = 0.7092 | 955.5 | 951.5 | 947.3 | 1272 | 1256 | 1240 | 0.915 | 0.844 | 0.78
x1 = 0.8069 | 997.7 | 993.7 | 989.7 | 1312 | 1292 | 1280 | 1.104 | 1.016 | 0.935
x1 = 0.9024 | 1036.9 | 1033 | 1029.1 | 1344 | 1328 | 1316 | 1.37 | 1.238 | 1.135
x1 = 1 | 1078.3 | 1074.4 | 1070.3 | 1380 | 1364 | 1348 | 1.667 | 1.514 | 1.376

COC(=O)c1ccccc1 [methyl benzoate] + CCCCCCC
[2]
Details | mass density, 303.15 K [kg/m3] | mass density, 308.15 K [kg/m3] | mass density, 313.15 K [kg/m3] | speed of sound, 303.15 K [m/s] | speed of sound, 308.15 K [m/s] | speed of sound, 313.15 K [m/s] | viscosity, 303.15 K [mPa·s] | viscosity, 308.15 K [mPa·s] | viscosity, 313.15 K [mPa·s]
x1 = 0.1154 | 715.5 | 711.3 | 708.1 | 1128 | 1108 | 1088 | 0.413 | 0.38 | 0.35
x1 = 0.2273 | 756.4 | 752.4 | 749.1 | 1148 | 1128 | 1108 | 0.467 | 0.43 | 0.401
x1 = 0.335 | 797.1 | 793.1 | 789.8 | 1168 | 1148 | 1128 | 0.533 | 0.494 | 0.458
x1 = 0.439 | 837.7 | 833.9 | 830.5 | 1192 | 1172 | 1152 | 0.627 | 0.575 | 0.529
x1 = 0.5404 | 878.6 | 874.8 | 871.3 | 1220 | 1196 | 1180 | 0.723 | 0.666 | 0.615
x1 = 0.6365 | 918.3 | 914.7 | 911.1 | 1248 | 1228 | 1212 | 0.84 | 0.781 | 0.728
x1 = 0.7324 | 959 | 955.3 | 951.7 | 1276 | 1260 | 1248 | 0.99 | 0.904 | 0.849
x1 = 0.8252 | 999.4 | 995.7 | 992.1 | 1308 | 1296 | 1284 | 1.172 | 1.068 | 0.982
x1 = 0.9133 | 1038.7 | 1034.8 | 1030.9 | 1348 | 1336 | 1324 | 1.404 | 1.284 | 1.15
x1 = 1 | 1078.3 | 1074.4 | 1070.3 | 1380 | 1364 | 1348 | 1.667 | 1.514 | 1.376

COC(=O)c1ccccc1 [methyl benzoate] + CCCCCCCC
[2]
Details | mass density, 303.15 K [kg/m3] | mass density, 308.15 K [kg/m3] | mass density, 313.15 K [kg/m3] | speed of sound, 303.15 K [m/s] | speed of sound, 308.15 K [m/s] | speed of sound, 313.15 K [m/s] | viscosity, 303.15 K [mPa·s] | viscosity, 308.15 K [mPa·s] | viscosity, 313.15 K [mPa·s]
x1 = 0.129 | 732.2 | 728.8 | 725.3 | 1160 | 1140 | 1124 | 0.522 | 0.484 | 0.447
x1 = 0.2456 | 770 | 766.4 | 762.9 | 1180 | 1160 | 1144 | 0.576 | 0.529 | 0.492
x1 = 0.3586 | 809.2 | 805.5 | 801.8 | 1200 | 1180 | 1164 | 0.644 | 0.596 | 0.556
x1 = 0.4655 | 848.4 | 844.5 | 840.7 | 1220 | 1200 | 1184 | 0.727 | 0.668 | 0.621
x1 = 0.5672 | 887.5 | 883.6 | 879.7 | 1240 | 1224 | 1204 | 0.832 | 0.762 | 0.705
x1 = 0.662 | 925.8 | 921.9 | 918 | 1260 | 1248 | 1228 | 0.936 | 0.857 | 0.788
x1 = 0.7528 | 964.3 | 960.3 | 956.5 | 1284 | 1272 | 1252 | 1.084 | 0.99 | 0.913
x1 = 0.8382 | 1002.3 | 998.1 | 994.3 | 1308 | 1300 | 1280 | 1.245 | 1.125 | 1.033
x1 = 0.9213 | 1040.6 | 1036.4 | 1032.4 | 1340 | 1328 | 1308 | 1.434 | 1.303 | 1.193
x1 = 1 | 1078.3 | 1074.4 | 1070.3 | 1380 | 1364 | 1348 | 1.667 | 1.514 | 1.376

CCCCCCCC [octane]
[1]
Details | mass density [kg/m3] | speed of sound [m/s] | viscosity [mPa·s]
303.15 K | 693.9 | 1148 | 0.491
308.15 K | 690.4 | 1132 | 0.45
313.15 K | 687 | 1112 | 0.415

CCCCCCCC [octane] + COC(=O)c1ccccc1
[2], x2 = 0
Details | mass density [kg/m3] | speed of sound [m/s] | viscosity [mPa·s]
303.15 K | 693.9 | 1148 | 0.491
308.15 K | 690.4 | 1132 | 0.45
313.15 K | 687 | 1112 | 0.415

Reference: the NIST ThermoML archive (doi:10.1021/je9006597)
